Test results from ChEMBL document CHEMBL5390237, “Discovery of Selective Histone Deacetylase 1 and 2 Inhibitors: Screening of a Focused Library Constructed by Click Chemistry, Kinetic Binding Analysis, and Biological Evaluation” (J Med Chem, 2023).
Activity calls are given as the source filed them. No cut-off for these calls is given here.

Experiments:
Histone deacetylase 2 [1] = target: T1, Histone deacetylase 2 (Homo sapiens, UniProt Q92769); conditions: Sf9, dose 30-100 nM, time 3.5 hrs
[2] = target: T2, Protein deacetylase HDAC6 (Homo sapiens) (UniProt Q9UBN7); assay: Inhibition of full-length recombinant human C-terminal GST tagged HDAC6 expressed in Sf9 insect cells using aminoluciferin peptide substrate preincubated for 3 hrs followed by substrate addition and measured after 30 mins by HDAC-Glo I/II chemiluminescence assay; conditions: time 3.5 hrs
T2 sequence (whole entry): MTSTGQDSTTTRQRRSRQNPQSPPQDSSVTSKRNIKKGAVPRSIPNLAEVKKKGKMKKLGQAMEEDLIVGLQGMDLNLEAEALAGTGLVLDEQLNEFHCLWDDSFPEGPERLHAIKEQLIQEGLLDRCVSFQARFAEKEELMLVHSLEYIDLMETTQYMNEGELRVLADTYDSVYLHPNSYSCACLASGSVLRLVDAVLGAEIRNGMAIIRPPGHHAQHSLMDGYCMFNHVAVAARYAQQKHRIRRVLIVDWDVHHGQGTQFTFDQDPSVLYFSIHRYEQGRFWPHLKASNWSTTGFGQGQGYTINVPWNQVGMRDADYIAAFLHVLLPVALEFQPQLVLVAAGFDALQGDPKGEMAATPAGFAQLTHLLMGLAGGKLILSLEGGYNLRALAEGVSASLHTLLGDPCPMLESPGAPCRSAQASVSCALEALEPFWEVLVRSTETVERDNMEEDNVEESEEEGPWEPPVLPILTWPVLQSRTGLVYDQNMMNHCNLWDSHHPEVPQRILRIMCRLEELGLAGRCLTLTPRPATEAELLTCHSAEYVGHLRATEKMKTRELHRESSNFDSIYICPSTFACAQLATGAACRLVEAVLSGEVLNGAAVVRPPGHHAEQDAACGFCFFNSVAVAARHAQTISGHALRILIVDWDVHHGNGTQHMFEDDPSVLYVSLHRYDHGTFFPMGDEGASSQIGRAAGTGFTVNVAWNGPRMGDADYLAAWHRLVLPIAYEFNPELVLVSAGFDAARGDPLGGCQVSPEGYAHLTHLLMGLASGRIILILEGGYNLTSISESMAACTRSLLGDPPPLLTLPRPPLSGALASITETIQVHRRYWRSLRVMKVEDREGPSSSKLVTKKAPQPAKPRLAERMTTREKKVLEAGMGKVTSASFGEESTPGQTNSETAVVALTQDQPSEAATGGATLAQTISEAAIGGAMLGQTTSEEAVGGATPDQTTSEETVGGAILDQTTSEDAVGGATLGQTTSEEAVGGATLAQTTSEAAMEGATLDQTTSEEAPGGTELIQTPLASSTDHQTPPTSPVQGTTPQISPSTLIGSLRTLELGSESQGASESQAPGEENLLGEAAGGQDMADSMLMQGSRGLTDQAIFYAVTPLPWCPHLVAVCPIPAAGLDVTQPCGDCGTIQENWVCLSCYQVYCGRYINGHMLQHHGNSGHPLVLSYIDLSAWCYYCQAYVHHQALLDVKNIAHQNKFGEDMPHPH

Histone deacetylase 1 = Histone deacetylase 1 (Homo sapiens, UniProt Q13547); assay: Inhibition of full-length recombinant human C-terminal GST tagged HDAC1 expressed in Sf9 insect cells using aminoluciferin peptide substrate preincubated for 3 hrs followed by substrate addition and measured after 30 mins by HDAC-Glo I/II chemiluminescence assay
Histone deacetylase 2 [3] = target: T1, Histone deacetylase 2; assay: Inhibition of full-length recombinant human C-terminal GST tagged HDAC2 expressed in Sf9 insect cells using aminoluciferin peptide substrate preincubated for 3 hrs followed by substrate addition and measured after 30 mins by HDAC-Glo I/II chemiluminescence assay; type: cell-based
MCF7 [4] = assay: Upregulation of GADD45A gene expression in human MCF7 cells at 2 uM incubated for 24 hrs by RT-qPCR analysis; type: functional, cell-based
[5] = target: Histone deacetylase 9 (Homo sapiens) (UniProt Q9UKV0); assay: Inhibition of recombinant human HDAC9 using fluorogenic substrate preincubated for 3 hrs followed by substrate addition and measured after 30 mins by fluorescence analysis; conditions: time 3.5 hrs
[6] = target: T3, Histone deacetylase (Homo sapiens) (UniProt Q13547+O15379+Q9UBN7+Q92769+Q9UQL6+Q8WUI4+Q9BY41+Q96DB2+P56524+Q9UKV0+Q969S8); conditions: MCF7, dose 10.0 µM, time <= 48.0 hrs
[7] = Cytotoxicity against human HMEC cells assessed as inhibition of cell viability incubated for 3 days by AlamarBlue based fluorescence analysis
MCF7 [8] = assay: Upregulation of DDIT4 gene expression in human MCF7 cells at 2 uM incubated for 24 hrs by RT-qPCR analysis; type: functional, cell-based
Mus musculus = assay: Neuroprotective activity in BALB/c mouse assessed as increase in spine density in granule neuron dendrites at 1 uM,SCi administered through osmotic minipumps incubated for 48 hrs by bright-field microscopy; type: functional, organism-based
Histone deacetylase 2 [9] = target: T1, Histone deacetylase 2; assay: Inhibition of full-length recombinant human C-terminal GST tagged HDAC2 expressed in Sf9 insect cells assessed as second order dissociation rate constant (k-2) using Ac-LGK(Ac)-AMC substrate and measured for 60 mins at 2 mins interval by fluorescence analysis
Histone deacetylase 2 [10] = target: T1, Histone deacetylase 2; assay: Inhibition of full-length recombinant human C-terminal GST tagged HDAC2 expressed in Sf9 insect cells assessed as second order […] rate constant (k2) using Ac-LGK(Ac)-AMC substrate and measured for 60 mins at 2 mins interval by fluorescence analysis
[11] = target: Histone deacetylase 5 (Homo sapiens) (UniProt Q9UQL6); assay: Inhibition of recombinant human HDAC5 using fluorogenic substrate preincubated for 3 hrs followed by substrate addition and measured after 30 mins by fluorescence analysis; conditions: time 3.5 hrs
[12] = target: T3, Histone deacetylase (Homo sapiens); conditions: MCF7, dose 1.0 µM, time <= 48.0 hrs
MCF7 [13] = assay: Upregulation of ERRF1 gene expression in human MCF7 cells at 2 uM incubated for 24 hrs by RT-qPCR analysis; type: functional, cell-based
MCF7 [14] = assay: Downregulation of E2F8 gene expression in human MCF7 cells at 2 uM incubated for 24 hrs by microarray analysis; type: functional, cell-based
N2a = assay: Induction of neurite outgrowth in mouse Neuro2a cells assessed as percentage of neurite-bearing cells at 20 to 2000 nM incubated for 48 hrs by microscopy; type: functional, cell-based; conditions: dose 20-2000 nM
MCF7 [15] = assay: cells; type: functional; conditions: Homo sapiens, time 48 hrs
Description: Anticancer activity against human MCF7 cells overexpressing HDAC1 and HDAC2 assessed as inhibition of cell growth incubated for 48 hrs by sulforhodamine B assay

[16] = target: Histone deacetylase 4 (Homo sapiens) (UniProt P56524); assay: Inhibition of recombinant human HDAC4 using fluorogenic substrate preincubated for 3 hrs followed by substrate addition and measured after 30 mins by fluorescence analysis; conditions: time 3.5 hrs
Histone deacetylase 2 [17] = target: T1, Histone deacetylase 2; conditions: Sf9, time 60.0 min
Histone deacetylase 2 [18] = target: T1, Histone deacetylase 2; conditions: Sf9, time 60.0 min; remark: listed apart in the source

T1 sequence (Q92769 whole entry): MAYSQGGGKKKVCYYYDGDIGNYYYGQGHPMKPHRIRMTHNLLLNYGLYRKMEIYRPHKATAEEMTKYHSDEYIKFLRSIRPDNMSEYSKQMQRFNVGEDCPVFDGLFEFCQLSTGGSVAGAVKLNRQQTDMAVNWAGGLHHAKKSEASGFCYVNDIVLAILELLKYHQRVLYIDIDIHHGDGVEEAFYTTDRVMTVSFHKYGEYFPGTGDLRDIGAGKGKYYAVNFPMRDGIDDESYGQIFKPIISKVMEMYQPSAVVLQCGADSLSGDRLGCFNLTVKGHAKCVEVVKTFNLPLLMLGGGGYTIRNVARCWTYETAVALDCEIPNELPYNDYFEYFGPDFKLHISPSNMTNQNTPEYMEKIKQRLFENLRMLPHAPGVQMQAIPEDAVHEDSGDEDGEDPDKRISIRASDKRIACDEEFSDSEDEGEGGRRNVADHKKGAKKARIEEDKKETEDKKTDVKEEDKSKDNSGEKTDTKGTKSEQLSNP
Sequence of Histone deacetylase 1 (Q13547 whole entry): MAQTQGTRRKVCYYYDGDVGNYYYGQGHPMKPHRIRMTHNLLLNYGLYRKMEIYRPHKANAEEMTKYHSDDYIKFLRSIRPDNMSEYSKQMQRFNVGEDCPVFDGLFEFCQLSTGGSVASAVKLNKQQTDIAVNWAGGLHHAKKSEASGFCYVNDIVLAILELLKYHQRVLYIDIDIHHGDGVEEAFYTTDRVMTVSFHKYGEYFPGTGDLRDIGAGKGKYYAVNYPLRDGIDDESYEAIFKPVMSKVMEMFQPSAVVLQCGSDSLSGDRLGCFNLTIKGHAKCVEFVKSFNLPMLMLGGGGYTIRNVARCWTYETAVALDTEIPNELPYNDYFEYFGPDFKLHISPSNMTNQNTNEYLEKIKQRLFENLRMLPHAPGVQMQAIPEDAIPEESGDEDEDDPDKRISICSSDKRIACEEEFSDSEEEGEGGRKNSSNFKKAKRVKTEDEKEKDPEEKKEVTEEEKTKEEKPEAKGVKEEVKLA
Sequence of Histone deacetylase 4 (Homo sapiens) (P56524 whole entry): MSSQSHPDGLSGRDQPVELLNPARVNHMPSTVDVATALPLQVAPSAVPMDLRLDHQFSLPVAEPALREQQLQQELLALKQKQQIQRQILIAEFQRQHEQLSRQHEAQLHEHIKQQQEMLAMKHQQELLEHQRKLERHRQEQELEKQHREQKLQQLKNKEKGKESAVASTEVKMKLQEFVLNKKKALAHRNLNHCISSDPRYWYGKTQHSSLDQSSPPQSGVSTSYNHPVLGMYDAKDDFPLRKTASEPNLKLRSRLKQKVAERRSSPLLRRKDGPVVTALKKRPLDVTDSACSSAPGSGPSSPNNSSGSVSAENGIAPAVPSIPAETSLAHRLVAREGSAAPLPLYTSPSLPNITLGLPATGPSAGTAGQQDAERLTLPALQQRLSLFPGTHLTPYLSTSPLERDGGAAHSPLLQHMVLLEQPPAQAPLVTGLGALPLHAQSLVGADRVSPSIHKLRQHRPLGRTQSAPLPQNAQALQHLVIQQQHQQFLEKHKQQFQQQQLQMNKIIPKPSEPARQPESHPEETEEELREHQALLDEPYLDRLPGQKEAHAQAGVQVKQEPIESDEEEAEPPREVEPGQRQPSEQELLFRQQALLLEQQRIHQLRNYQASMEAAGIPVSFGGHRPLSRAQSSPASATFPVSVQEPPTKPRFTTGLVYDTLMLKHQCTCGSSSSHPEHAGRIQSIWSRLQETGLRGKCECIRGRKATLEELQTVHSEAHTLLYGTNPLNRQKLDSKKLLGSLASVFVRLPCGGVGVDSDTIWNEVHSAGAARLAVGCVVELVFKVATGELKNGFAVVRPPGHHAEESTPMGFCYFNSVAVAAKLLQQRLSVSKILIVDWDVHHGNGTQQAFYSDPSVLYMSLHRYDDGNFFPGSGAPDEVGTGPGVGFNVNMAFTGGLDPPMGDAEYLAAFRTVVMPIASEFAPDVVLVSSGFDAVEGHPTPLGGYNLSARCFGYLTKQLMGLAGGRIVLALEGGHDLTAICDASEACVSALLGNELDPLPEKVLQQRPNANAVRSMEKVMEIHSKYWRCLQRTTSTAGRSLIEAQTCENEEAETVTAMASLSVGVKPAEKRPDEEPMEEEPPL
Sequence of Histone deacetylase 9 (Homo sapiens) (Q9UKV0 whole entry): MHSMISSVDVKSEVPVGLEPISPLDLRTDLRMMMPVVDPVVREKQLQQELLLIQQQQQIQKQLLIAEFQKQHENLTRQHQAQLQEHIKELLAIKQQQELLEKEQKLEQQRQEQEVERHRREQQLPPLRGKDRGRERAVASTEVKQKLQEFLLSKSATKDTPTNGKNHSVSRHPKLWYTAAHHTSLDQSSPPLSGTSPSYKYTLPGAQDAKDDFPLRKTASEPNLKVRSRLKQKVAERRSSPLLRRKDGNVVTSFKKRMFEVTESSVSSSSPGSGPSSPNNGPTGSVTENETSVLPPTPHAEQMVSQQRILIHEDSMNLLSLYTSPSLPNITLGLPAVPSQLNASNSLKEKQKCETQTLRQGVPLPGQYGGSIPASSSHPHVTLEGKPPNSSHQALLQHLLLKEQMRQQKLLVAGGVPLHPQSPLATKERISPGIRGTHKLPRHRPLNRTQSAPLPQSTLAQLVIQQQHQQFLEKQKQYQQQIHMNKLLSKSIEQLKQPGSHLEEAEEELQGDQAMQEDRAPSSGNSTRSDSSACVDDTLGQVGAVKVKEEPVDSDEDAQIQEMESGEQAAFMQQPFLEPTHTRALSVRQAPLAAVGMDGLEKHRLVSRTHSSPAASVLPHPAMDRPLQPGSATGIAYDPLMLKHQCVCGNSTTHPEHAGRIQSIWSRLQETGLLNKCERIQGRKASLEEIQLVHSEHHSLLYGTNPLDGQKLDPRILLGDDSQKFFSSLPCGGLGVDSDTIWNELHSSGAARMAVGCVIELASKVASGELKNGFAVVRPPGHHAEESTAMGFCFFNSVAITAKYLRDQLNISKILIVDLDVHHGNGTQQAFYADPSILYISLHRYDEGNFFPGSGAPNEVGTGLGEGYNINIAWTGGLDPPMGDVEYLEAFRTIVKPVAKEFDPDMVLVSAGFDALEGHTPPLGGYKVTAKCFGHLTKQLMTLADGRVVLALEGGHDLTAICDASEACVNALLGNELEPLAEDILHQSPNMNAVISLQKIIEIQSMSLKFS
Sequence of Histone deacetylase 5 (Homo sapiens) (Q9UQL6 whole entry): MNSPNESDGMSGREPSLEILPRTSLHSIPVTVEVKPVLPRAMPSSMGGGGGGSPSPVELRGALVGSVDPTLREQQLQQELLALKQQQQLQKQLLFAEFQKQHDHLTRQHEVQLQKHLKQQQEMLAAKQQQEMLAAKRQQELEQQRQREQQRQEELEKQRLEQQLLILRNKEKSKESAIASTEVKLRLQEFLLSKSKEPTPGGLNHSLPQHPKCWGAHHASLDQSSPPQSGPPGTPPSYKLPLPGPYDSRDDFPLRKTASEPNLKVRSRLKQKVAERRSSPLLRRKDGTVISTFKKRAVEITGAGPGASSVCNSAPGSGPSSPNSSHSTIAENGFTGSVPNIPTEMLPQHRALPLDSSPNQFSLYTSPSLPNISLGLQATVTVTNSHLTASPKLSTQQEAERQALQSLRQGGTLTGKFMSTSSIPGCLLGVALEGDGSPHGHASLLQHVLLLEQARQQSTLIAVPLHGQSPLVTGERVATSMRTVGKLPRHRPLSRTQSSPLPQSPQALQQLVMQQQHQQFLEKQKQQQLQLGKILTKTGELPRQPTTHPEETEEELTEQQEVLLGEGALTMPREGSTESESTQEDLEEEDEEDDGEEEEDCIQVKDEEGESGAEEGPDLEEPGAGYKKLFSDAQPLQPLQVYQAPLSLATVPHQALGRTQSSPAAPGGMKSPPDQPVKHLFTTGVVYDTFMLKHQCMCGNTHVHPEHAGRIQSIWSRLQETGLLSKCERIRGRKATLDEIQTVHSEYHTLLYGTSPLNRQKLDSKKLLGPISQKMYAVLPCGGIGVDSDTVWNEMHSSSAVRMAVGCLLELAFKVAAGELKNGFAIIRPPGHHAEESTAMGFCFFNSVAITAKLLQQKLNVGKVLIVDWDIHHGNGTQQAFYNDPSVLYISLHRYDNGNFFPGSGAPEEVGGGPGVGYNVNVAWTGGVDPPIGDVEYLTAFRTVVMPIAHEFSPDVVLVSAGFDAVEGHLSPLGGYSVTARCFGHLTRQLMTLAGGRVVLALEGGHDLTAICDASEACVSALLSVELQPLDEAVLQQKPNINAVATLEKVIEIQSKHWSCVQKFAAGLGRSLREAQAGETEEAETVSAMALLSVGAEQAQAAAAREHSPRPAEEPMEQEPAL

| inhibition (Histone deacetylase 2 [1]) | inhibition [2] | IC50 (Histone deacetylase 1) [nM] | IC50 (Histone deacetylase 2 [3]) [nM] | inhibition [5] | TDI [6] | inhibition [11] | TDI [12] | GI50 (MCF7 [15]) [nM] | inhibition [16] | Kdiss (Histone deacetylase 2 [17]) [s⁻¹] | ka (Histone deacetylase 2 [18]) [M⁻¹ s⁻¹] | SMILES | Activity (MCF7 [4]) | IC50 at 3 days [7] [nM] | Activity (MCF7 [8]) | Activity (MCF7 [13]) | Activity (MCF7 [14]) | further results |
| --- | --- | --- | --- | --- | --- | --- | --- | --- | --- | --- | --- | --- | --- | --- | --- | --- | --- | --- |
| Dose-Dependent Effect | inactive | 12 | 68 | inactive | Active | inactive | Active | 43 | inactive | – | – | Nc1ccc(-c2cccs2)cc1NC(=O)c1ccc(-c2cn(CS(=O)(=O)c3ccccc3)nn2)cc1 | Active | 9850 | Active | Active | Active | Activity (Mus musculus): Active; Kdiss (Histone deacetylase 2 [9]): 3.33e-05 s⁻¹; ka (Histone deacetylase 2 [10]): 683 M⁻¹ s⁻¹; Activity (N2a): Active |
| Dose-Dependent Effect | inactive | 8.2 | 19 | inactive | Active | inactive | Active | 1860 | inactive | 0.000117 | 5330 | Nc1ccc(-c2cccs2)cc1NC(=O)c1ccc(-c2cn(C[S+]([O-])c3ccccc3)nn2)cc1 (stereo not drawn) | Active | > 10000 | Active | Active | Active | – |
| Dose-Dependent Effect | inactive | 6.5 | 17 | inactive | Active | inactive | Active | 52500 | inactive | 8.33e-05 | 8830 | Nc1ccc(-c2cccs2)cc1NC(=O)c1ccc(-c2cn(CCc3ccccn3)nn2)cc1 | Active | 4350 | Active | Active | Active | – |
